Reference: patent US9682928B2 (NeuroPro Therapeutics, Inc., priority 2009, dated 2017)
“Also recorded” adds a separate entry of the source.

Key:
[1] = target: T1, α1β3γ2 GABAA receptor isoform (Homo sapiens, UniProt P14867+P18507+P28472); test: Whole-cell patch clamp, transfected HEK-293T cells; assay type: cell-based, rat or human; settings: 10 μM NTP-2014
T1 construct: expressed in transfected cells; host or cells: HEK-293T, transient transfection
Method: (§1) The addition of GABA to […] activates the recombinant expressed GABAA receptors, creating an ion movement through the ion channel in the GABAA receptor. The electrical current generated by the movement of chloride ions into the cells can be quantified.
(§2) HEK-293T cells were transiently transfected with rat or human GABAA receptor subunits. Whole-cell patch clamp recording was performed at −50 mV unless otherwise indicated. Test compounds was diluted from a freshly made stock in DMSO, GABA was prepared from a frozen stock. For each experiment GABA or GABA+a test compound was applied for 5 seconds, and the electrical current generated by the movement of chloride ions into the cells was measured and recorded as a trace of current versus time.
(§3) Compounds described herein (e.g., NTP-2014) were tested at high and low GABA concentrations against multiple GABAA receptor isoforms (e.g., α1β3γ2, α2β3 γ2, α3β3γ2, α3β3γ2, α4β3γ2, α5β3γ2, α6β3γ2). […] NTP-2014 inhibits the currents in the parasynaptic α4 GABAA receptor isoform in GABAergic interneurons. […]

[2] = target: T2, α2β3γ2 GABAA receptor isoform (Homo sapiens, UniProt P18507+P28472+P47869); test: Whole-cell patch clamp, transfected HEK-293T cells; assay type: cell-based, rat or human; settings: 10 μM NTP-2014; 1 μM and 100 μM GABA
T2 construct: expressed in transfected cells; host or cells: HEK-293T, transient transfection
T2 sequence (P47869 29-451): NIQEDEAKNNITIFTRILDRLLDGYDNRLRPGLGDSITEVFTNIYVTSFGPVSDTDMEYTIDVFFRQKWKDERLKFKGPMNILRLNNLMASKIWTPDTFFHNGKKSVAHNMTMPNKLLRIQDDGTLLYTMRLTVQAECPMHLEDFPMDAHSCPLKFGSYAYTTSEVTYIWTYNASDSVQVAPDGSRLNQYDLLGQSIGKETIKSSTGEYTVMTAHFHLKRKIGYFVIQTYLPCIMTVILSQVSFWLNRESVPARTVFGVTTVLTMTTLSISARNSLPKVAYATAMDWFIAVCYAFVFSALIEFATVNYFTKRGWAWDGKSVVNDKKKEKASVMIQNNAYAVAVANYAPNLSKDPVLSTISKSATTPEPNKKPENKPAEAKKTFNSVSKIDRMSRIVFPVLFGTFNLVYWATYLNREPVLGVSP
T2 sequence (P28472 26-473): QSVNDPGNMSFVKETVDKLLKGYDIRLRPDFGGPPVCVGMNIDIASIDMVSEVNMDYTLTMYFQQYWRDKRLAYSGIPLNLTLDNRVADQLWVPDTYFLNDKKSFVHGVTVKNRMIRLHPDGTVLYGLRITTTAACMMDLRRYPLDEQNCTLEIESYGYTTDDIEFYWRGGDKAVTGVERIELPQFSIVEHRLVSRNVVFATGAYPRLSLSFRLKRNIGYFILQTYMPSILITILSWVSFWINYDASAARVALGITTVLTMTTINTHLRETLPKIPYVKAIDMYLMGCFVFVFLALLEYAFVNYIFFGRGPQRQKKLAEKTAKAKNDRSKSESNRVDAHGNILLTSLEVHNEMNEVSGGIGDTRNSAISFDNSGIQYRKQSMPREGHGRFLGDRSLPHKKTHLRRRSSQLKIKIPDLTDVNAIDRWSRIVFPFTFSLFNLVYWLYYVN
T2 sequence (P18507 40-475): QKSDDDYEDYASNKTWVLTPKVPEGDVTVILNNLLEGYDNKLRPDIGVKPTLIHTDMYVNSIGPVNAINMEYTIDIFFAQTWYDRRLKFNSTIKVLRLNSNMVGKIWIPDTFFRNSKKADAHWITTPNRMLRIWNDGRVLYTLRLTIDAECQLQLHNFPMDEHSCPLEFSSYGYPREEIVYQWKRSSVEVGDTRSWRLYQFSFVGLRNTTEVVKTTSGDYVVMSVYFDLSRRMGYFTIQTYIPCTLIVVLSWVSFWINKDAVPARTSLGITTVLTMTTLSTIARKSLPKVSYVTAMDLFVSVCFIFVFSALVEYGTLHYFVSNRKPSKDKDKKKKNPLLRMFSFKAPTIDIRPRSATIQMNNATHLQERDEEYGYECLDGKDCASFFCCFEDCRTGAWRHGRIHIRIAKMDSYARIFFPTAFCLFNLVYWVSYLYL
Method: as §1, §2, §3

[3] = target: T3, α3β3γ2 GABAA receptor isoform (Homo sapiens, UniProt P18507+P28472+P34903); test: Whole-cell patch clamp, transfected HEK-293T cells; assay type: cell-based, rat or human; settings: 10 μM NTP-2014; 1 μM and 100 μM GABA
T3 construct: expressed in transfected cells; host or cells: HEK-293T, transient transfection
T3 sequence (P34903 29-492): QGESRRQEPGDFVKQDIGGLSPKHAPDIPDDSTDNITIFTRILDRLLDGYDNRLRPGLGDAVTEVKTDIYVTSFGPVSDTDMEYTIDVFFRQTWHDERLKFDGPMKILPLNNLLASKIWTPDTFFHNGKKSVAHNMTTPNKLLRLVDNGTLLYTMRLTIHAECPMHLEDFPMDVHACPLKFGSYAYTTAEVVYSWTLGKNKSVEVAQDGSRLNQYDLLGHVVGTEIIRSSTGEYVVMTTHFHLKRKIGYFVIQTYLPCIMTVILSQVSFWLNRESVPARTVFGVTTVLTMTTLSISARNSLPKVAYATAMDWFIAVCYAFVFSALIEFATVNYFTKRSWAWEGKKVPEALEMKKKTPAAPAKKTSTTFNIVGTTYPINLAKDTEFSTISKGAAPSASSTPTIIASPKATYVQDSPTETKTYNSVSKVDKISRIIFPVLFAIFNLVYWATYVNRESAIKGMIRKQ
T3 sequence (P28472 26-473): as the sequence (P28472 26-473) above
T3 sequence (P18507 40-475): as the sequence (P18507 40-475) above
Method: as §1, §2, §3

[4] = target: T4, α5β3γ2 GABAA receptor isoform (Homo sapiens, UniProt P18507+P28472+P31644); test: Whole-cell patch clamp, transfected HEK-293T cells; assay type: cell-based, rat or human; settings: 10 μM NTP-2014; 1 μM and 100 μM GABA
T4 construct: expressed in transfected cells; host or cells: HEK-293T, transient transfection
T4 sequence (P31644 32-462): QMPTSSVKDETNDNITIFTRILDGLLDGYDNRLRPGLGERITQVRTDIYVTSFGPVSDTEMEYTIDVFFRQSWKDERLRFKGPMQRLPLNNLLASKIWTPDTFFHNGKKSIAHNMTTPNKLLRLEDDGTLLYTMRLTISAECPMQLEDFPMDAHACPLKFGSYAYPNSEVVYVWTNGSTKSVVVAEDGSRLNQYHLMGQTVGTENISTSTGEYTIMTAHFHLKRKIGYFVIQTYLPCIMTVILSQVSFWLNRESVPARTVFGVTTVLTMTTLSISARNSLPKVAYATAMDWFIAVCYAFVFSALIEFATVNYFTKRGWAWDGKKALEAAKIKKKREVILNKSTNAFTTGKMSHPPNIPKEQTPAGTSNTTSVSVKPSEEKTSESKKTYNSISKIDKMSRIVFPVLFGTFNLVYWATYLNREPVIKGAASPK
T4 sequence (P28472 26-473): as the sequence (P28472 26-473) above
T4 sequence (P18507 40-475): as the sequence (P18507 40-475) above
Method: as §1, §2, §3

[5] = target: T5, α6β3γ2 GABAA receptor isoform (Homo sapiens, UniProt P18507+P28472+Q16445); test: Whole-cell patch clamp, transfected HEK-293T cells; assay type: cell-based, rat or human
T5 construct: expressed in transfected cells; host or cells: HEK-293T, transient transfection
T5 sequence (Q16445 20-453): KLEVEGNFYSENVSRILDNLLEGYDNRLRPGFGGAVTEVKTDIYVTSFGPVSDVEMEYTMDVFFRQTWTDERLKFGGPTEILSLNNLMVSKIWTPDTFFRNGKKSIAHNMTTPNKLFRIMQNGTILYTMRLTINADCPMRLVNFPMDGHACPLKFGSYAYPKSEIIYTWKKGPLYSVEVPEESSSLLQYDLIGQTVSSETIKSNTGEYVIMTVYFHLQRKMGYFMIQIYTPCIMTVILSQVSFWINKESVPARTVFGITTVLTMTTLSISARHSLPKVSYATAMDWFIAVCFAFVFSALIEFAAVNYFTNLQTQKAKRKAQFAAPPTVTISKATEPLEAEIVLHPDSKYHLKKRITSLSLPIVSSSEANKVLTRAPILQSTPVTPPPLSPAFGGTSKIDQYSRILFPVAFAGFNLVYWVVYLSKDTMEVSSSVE
T5 sequence (P28472 26-473): as the sequence (P28472 26-473) above
T5 sequence (P18507 40-475): as the sequence (P18507 40-475) above
Method: as §1, §2, §3

[6] = target: T6, δ-containing GABAA receptors (Homo sapiens, UniProt O14764); test: Whole-cell patch clamp, transfected HEK-293T cells; assay type: cell-based, rat or human; settings: 10 μM NTP-2014
T6 construct: expressed in transfected cells; host or cells: HEK-293T, transient transfection
T6 sequence (O14764 25-452): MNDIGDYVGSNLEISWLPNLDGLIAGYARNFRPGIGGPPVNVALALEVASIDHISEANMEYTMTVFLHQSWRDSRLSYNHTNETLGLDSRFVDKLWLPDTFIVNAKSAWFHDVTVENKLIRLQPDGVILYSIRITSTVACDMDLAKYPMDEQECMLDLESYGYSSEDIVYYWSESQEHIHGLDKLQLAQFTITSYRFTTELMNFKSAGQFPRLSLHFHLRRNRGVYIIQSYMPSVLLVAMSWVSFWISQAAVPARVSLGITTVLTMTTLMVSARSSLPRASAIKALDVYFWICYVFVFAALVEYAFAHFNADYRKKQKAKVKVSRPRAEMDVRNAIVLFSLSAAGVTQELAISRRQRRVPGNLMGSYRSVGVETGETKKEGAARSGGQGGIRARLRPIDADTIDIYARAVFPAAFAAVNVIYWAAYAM
Method: as §1, §2

[7] = in vivo; settings: rat
[8] = system: rats; test: Contextual fear conditioning in rats; assay type: in vivo, rat; settings: I.V.; furosemide 100 mg/kg, bumetanide 50 mg/kg
Method: Contextual fear conditioning involves pairing an aversive event, in this case moderate foot shock, with a distinctive environment. The strength of the fear memory is assessed using freezing, a species-typical defensive reaction in rats, marked by complete immobility, except for breathing. […] However, if they are allowed to explore the distinctive environment sometime before the immediate shock, they show intense anxiety and fear when placed back into the same environment. By procedurally dividing contextual fear conditioning into two phases, the effects of treatments on memory for the context (specifically a hippocampus based process) from learning the association between context and shock or experiencing the aversiveness of the shock (which depend upon emotional response circuitry including amygdala) were separately studied. […] The experiment employed 24 rats. […] Each rat was again placed into the same environment for 8 min during which time freezing was measured, as an index of Pavlovian conditioned fear. […] Measurement of freezing was accomplished through an overhead video camera connected to the microcomputer and was automatically scored using a specialty piece of software, FreezeFrame (OER Inc., Reston, Va.) Total freezing time was analyzed in a one-way analysis of variance (ANOVA) test, with drug dose as the […] factor.

[9] = system: mouse; settings: literature data; cited from earlier work
[10] = system: Male CD-1 mice; test: Chung (SNL) neuropathic pain study in mice; assay type: in vivo, mouse; settings: high dose group (180 mg/kg NTP-2014; 100 mg/kg NTP-2026; gabapentin 100 mg/kg, i.p.)

T1 sequence (P14867 28-456): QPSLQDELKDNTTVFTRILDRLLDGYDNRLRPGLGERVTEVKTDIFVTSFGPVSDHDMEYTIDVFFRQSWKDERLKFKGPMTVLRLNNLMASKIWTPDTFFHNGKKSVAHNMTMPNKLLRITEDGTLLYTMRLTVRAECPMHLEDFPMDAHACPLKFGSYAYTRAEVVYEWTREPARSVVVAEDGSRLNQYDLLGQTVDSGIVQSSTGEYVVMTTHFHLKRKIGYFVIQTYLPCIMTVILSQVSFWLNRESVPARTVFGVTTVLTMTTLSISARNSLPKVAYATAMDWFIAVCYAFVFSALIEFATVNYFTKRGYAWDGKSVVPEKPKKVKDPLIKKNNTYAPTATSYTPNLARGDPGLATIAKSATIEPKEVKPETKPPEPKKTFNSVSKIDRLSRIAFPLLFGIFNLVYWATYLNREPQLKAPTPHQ
T1 sequence (P28472 26-473): as the sequence (P28472 26-473) above
T1 sequence (P18507 40-475): as the sequence (P18507 40-475) above

Q: For CCCCN(CCCC)c1cc(C(=O)O)cc(S(N)(=O)=O)c1Oc1ccccc1 [NTP-2014, 3-Aminosulfonyl-5-N,N-dibutylamino-4-phenoxybenzoic acid], which “Effect on current, α1β3γ2 GABAA receptor isoform” value [1] is on record?
A: no significant activation; also recorded: amplitude of the current was not increased

Q: What about the “Effect on current, α2 containing isoform” value [2] of the same compound?
A: slowed the decay rate; also recorded: inhibited

Q: And the “Effect on current, α3 containing isoform” value [3]?
A: slowed the decay rate; also recorded: inhibited

Q: What about the “Effect on current, α5 containing isoform” value [4] of the same compound?
A: slowed the decay rate; also recorded: inhibited

Q: What about the “Effect on currents, α6 containing receptors” value ([5]; 0.1, 1, 10 μM GABA) of the same compound?
A: inhibited by NTP-2014 at higher GABA concentrations, but unaffected at lower GABA concentrations

Q: And the EC50 ([5]; FIG. 41C, read-out: EC50 in α6 containing GABAA receptor isoforms)?
A: 20.2 µM

Q: What about the IC50 ([5]; read-out: IC50, receptors containing the α6 subunit) of the same compound?
A: 10 to 30 µM

Q: And the “Effect on δ-containing receptors” value [6]?
A: unaffected

Q: What about the NOAEL at 14 day [7] of the same compound?
A: 500 mg/kg

Q: With CCCCNc1cc(C(=O)O)cc(S(N)(=O)=O)c1Oc1ccccc1 [Bumetanide, reference compound] as the compound, how does the “Freezing vs vehicle alone” value [8] read?
A: significantly less freezing

Q: What about the “Activity in early phase formalin paw test” value [9] of the same compound?
A: has little

Q: What about the “Activity in late phase formalin paw test” value [9] of the same compound?
A: is active in late phase

Q: For CCCCNc1cc(C(=O)N(C)CCCN(C)C)cc(S(N)(=O)=O)c1Oc1ccccc1 [NTP-2026, N-(3-(Dimethylamino)propyl)-N-methyl 3-Aminosulfonyl-5-N-butylamino-4-phenoxybenzamide], which Sedation [10] is on record?
A: Some minor sedation; also recorded: tactile hypersensitivity. Some minor
